Results published in PMC9096233, “Identification of an Au(I) N-Heterocyclic Carbene Compound as a Bactericidal Agent Against Pseudomonas aeruginosa” (Frontiers in Chemistry, 2022).

Assays:
rhamnolipid = assay: Rhamnolipid measurement (anthrone); type: cell-based, Pseudomonas aeruginosa; settings: 15 μM
Procedure: (§1) To quantify the secreted virulence factors, overnight P. aeruginosa PAO1 was diluted in fresh M9 medium and cultured to a final OD600 value of 0.15. Then Au1 or auranofin were added into culture with indicated concentrations. After 24 h incubation at 37°C, the bacterial supernatants were collected by centrifugation at 4,000 g for 10 min at 4°C and filtered using a 0.22 μm syringe filter (Millipore). The secreted virulence factors in the supernatant were quantified by the methods described below.
For rhamnolipid measurement, rhamnolipid was extracted from the supernatant with a mixture of chloroform and methanol (v:v = 2:1). The organic solvent phase was then evaporated to dryness and 100 μL methanol was added to dissolve the extracted rhamnolipid. Then 200 μL of pre-cooled anthrone solution (dissolving 2 g of anthrone in 1 L of concentrated H2SO4) was added into 20 μL extracted rhamnolipid sample and heat at 80°C for 30min. The rhamnolipid concentration was determined by measurement the absorbance at 630 nm.

P. aeruginosa [1] = assay: Checkerboard assay with antibiotics; type: cell-based, Pseudomonas aeruginosa; settings: with tobramycin and colistin
Source text: Figure S4. Heat plots of checkerboard assays for gold(I) compounds in combination with different antibiotics against P. aeruginosa.

P. aeruginosa PAO1 = assay: Mouse skin wound infection model; type: in vivo
Procedure: Six-week-old female BALB/c mice were used for animal experiments to evaluate the healing effect of infected wounds in vivo. Briefly, mouse backs were cut to generate a circular wound (diameter 0.6 cm) with a hole punch and the wound was infiltrated using a medical cotton swab with P. aureginosa (overnight culture, OD600 = 0.3). The mice were randomly divided into three groups, including PBS, auranofin, and Au-1 groups (n = 5 in each group). The drugs were dissolved in DMSO and diluted with glycerol to a final concentration of 50 μM. After the bacterial fluid was dry, about 20 μL of the drug was added to the wound. Body weights and wound photography was recorded on days 0, 1, 3, 5, and 8. And on the 8th day, the mice were euthanized by chloral hydrate, the infectious tissues in all groups were collected and cultured into the LB plate for colony counting. The skin tissues were also fixed by paraformaldehyde solution (4%) for H&E, Gram, and Masson’s trichrome staining.
The above results promoted us to further investigate whether the Au1 compound was also efficacious in an in vivo animal infection model. To this end, we used a mouse wound infection model to assess the anti-P. aeruginosa efficacy of Au1 as described previously ([Liao et al., 2017b]). In brief, a circular wound with a diameter of 6 mm was created on the flank of mice, and approximately 5 × 10^8 CFU of P. aeruginosa PAO1 were dipped onto the wound by medical cotton swab to induce infection. Treatment is administered on the 1st day with auranofin or Au1 compound (50 μM, 20 μL) was applied to the wounds. The wound sizes and mice weights were recorded each day. On the 8th day, the infection sites were excised and part of the tissues was fixed in 4% paraformaldehyde and embedded in paraffin. Four-micrometer sections were cut, stained with Gram, H&E, and Masson’s trichrome stain. The remained tissues were homogenized and serially diluted for CFU quantification (Figure 6A).

LasA protease = LasA protease detection (azocasein); type: cell-based, Pseudomonas aeruginosa; settings: 15 μM; 24 h
Procedure: as §1
For LasA protease detection, 5 μL of filtered supernatant was mixed with 1 ml of 0.5% azocasein (Sigma-Aldrich) in reaction buffer (50 mM Tris-HCl, 0.5 mM CaCl2, pH 7.5). The mixture was incubated at 37°C for 15 min. After reaction, 500 μL of 10% trichloroacetic (TCI Shanghai) acid was added and incubated for 30 min at room temperature. After centrifugation at 10,000 g for 20 min, the 440 nm absorbance of the collected supernatant was measured to quantify the secreted LasA protease.

P. aeruginosa [2] = assay: Drug resistance development assay (serial passage); type: cell-based, Pseudomonas aeruginosa; settings: serial passage at sub-lethal concentrations over 14 days
Procedure: Development of resistance to the Au1 compound and the antibiotics (ciprofloxacin and tobramycin) were assessed as described by [Habets and Brockhurst (2012)]. The MIC assay was performed on the first day as described above. […] Thereafter, a new passage MIC measurement assay was prepared using diluted bacterial cells grown at 0.5-fold MIC suspension. This was repeated for 14 passages and the MIC values for Au1, ciprofloxacin and tobramycin were recorded for each passage.

pyocyanin = assay: Quantification of secreted pyocyanin; type: cell-based, Pseudomonas aeruginosa; settings: 15 μM; 24 h
Procedure: as §1
The bacterial secreted pyocyanin was quantified as described previously ([Essar et al., 1990]). Approximately 10 ml bacterial supernatant medium was collected by centrifugation. Subsequently, 3 ml chloroform was added into medium to extract the pyocyanin. The pyocyanin was re-extracted into 1 ml of 0.2 M HCl to give a pink to deep red solution after approximately 30 min. The pyocyanin concentration was determined by measurement the absorbance at 520 nm.

pyoverdine = assay: Quantification of secreted pyoverdine; type: cell-based, Pseudomonas aeruginosa; settings: 15 μM; 24 h
Procedure: as §1

LasB elastase = assay: LasB elastase, Elastin-Congo red assay; type: cell-based, Pseudomonas aeruginosa; settings: 15 μM; 24 h
Procedure: as §1
The LasB elastase was examined by Elastin-Congo red assay ([Morihara et al., 1965]). In brief, 700 μL of bacterial supernatant was incubated with 700 μL of 10 mg/ml Elastin-Congo (Sigma-Aldrich) red elastase substrate in reaction buffer (100 mM Tris-HCl, 1 mM CaCl2, pH 7.5) at 37°C for 3 h with shaking. Then 0.2 ml EDTA was added to a final concentration of 10 mM to stop the cleavage reaction. Insoluble pellets were removed by centrifugation and the absorbance of the supernatant at 495 nm was measured.

P. aeruginosa biofilm = assay: Biofilm inhibition, crystal violet; type: cell-based, Pseudomonas aeruginosa; settings: 48 h static incubation
Procedure: P. aeruginosa was cultured in 24-well microtiter plate (Corning, NY, United States) for static biofilm formation. For biofilm inhibition assay, approximately 1 ml of bacterial overnight culture were diluted in fresh M9 medium with a final OD600 value of 0.33 and transferred into each well of microtiter plate in the absence or presence of sub-lethal concentration of Au1 or auranofin (2.5, 10, and 15 μM). After static incubation at 37°C for 48 h, weakly adherent planktonic cells were removed from the microtiter plate by washing with phosphate buffered saline (PBS) for three times gently. The adherent biofilms were dried and stained with 0.1% (w/v) crystal violet for 15 min. Excess dye was removed by rinsing the plate three times with PBS. Crystal violet was solubilized from the stained biofilms by adding 30% acetic acid and the biofilms were quantified by measuring the 595 nm absorbance. Each experiment was performed in triplicates.

NHC^Me-Au-Cl [Au1]
synthesis of rhamnolipid (rhamnolipid): significantly suppress
synergistic effects with antibiotics (P. aeruginosa [1]): synergistic effects
state of infected wound (P. aeruginosa PAO1; 50 μM, 20 μL on wound, 8th day): almost completely recovered
toxicity to the mice (mice weights) (P. aeruginosa PAO1; 50 μM, 20 μL on wound, 8 days): no significant toxicity
wound healing rate (P. aeruginosa PAO1; 50 μM, 20 μL on wound, vs auranofin-treated or control group): much faster
bacteria in wound tissue (Gram staining) (P. aeruginosa PAO1; 8th day): no bacteria was observed
reduction of live bacteria in the infection sites (P. aeruginosa PAO1; 8th day, CFU, compared to control group): 90%
decrease of LasA protease secretion (LasA protease): 54%
development of resistance (P. aeruginosa [2]): not observed
pyocyanin secretion (pyocyanin): almost completely inhibited
decrease of pyoverdine siderophore secretion (pyoverdine): 50%
decrease of elastase secretion (LasB elastase): 38%
lowest concentration sufficient to inhibit biofilm formation (P. aeruginosa biofilm): 2.5 µM
